Values of other authors, collected in patent publication US20260014182A1, “METHOD OF TREATING CANCER” (M.T.3, Inc., priority 2019, published 2026).

Test system: angiogenesis
Conditions: in-vitro test, used with radiation

SMILES | angiogenesis
CCCCCCCCCCCCCCCCCC(=O)OCCCO[C@@H]1O[C@H](CS(=O)(=O)[O-])[C@@H](O)[C@H](O)[C@H]1O.[Na+] [βSQAP C18:0] | inhibited
CCCCCCCCCCCCCCCCCCCCCC(=O)OCCCO[C@H]1O[C@H](CS(=O)(=O)[O-])[C@@H](O)[C@H](O)[C@H]1O.[Na+] [αSQAP C22:0] | inhibited
CCCCCCCCCC(=O)OCCCO[C@H]1O[C@H](CS(=O)(=O)[O-])[C@@H](O)[C@H](O)[C@H]1O.[Na+] [αSQAP C10:0] | inhibited
CCCCCCCCCCCCCC(=O)OCCCO[C@H]1O[C@H](CS(=O)(=O)[O-])[C@@H](O)[C@H](O)[C@H]1O.[Na+] [αSQAP C14:0] | inhibited
